Experimental data as given in US10703733B2, “MCL-1 inhibitors” (Gilead Sciences, Inc., priority 2018, dated 2020).
Read-outs that look alike come from different tables or passages of the source.

Key:
[1] = molecular target: MCL-1/Bim interaction (recombinant human MCL-1 protein, residues 171-327; biotinylated human Bim peptide, residues 51-76) (Homo sapiens (Human), UniProt Q07820); assay: MCL-1/Bim Binding AlphaLISA Assay; conditions: 0.0625 nM 6xHis-Mcl-1 (171-327), 0.0625 nM biotinylated-Bim peptide
Method in brief: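 AlphaLISA with 0.0625 nM His-tagged MCL-1 and 0.0625 nM biotin-Bim peptide in 20 mM Hepes pH 7.5, 150 mM NaCl, 0.002% Brij 35, 1 mM DTT, 0.01% BSA. Compound preincubated 1 h with MCL-1, Bim added for 2 h, then acceptor and donor beads 1 h each.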

SKBR3 cells = assay: SKBR3 Cell Viability Assay (CellTiter Glo); type: cell-based; conditions: CellTiter Glo luminescence, read-out: MCL-1 CV SKBR3 EC50
Procedure: SKBR3 Cell Viability Assay Materials
SKBR3 Cells (ATCC HTB-30) were obtained from ATCC (Manassas, Va.) and cultured in McCoy 5A's medium (ATCC 30-2007)+10% fetal bovine serum (SH30071.03, HyClone, Pittsburgh, Pa.) plus 1× Penicillin-Streptomycin L-glutamine (Corning 30-009-C1, Corning, N.Y.)).
The cell viability assay was conducted in a 384-well tissue culture plate (Grenier 781086, Monroe, N.C.) in a total volume of 70 μL. Test compounds were prepared in 1,000×, serially diluted, and pre-spotted into 384-well tissue culture plate by Echo 555 Liquid Handler (Labcyte Inc., San Jose, Calif.). Seventy μl of 6,000 SKBR3 cells were dispensed into each well of the plate and incubated at 37° C. with 5% CO2 for 72 hours. At the end of incubation, 2× CellTiter Glo (CTG) reagents (1 part buffer with 2 parts substrate) (Promega, Madison, Wis.) were prepared, and the plate and the reagent were equilibrated to room temperature for 30 minutes. CTG reagent was added to each plate by Biomek FX at 20 μL/well with 5 times pipetting and mixing to induce cell lysis. Luminescence was read by Envision multimode reader (PerkinElmer). […] Percent inhibition was calculated as followed: % Inhibition=100%*(Well−Neg)/(Pos−Neg) Neg, negative control, DMSO Pos, positive control, 10 μM Puromycin

MCL-1/Bim interaction (recombinant human MCL-1 protein, residues 171-327; biotinylated human Bim peptide, residues 51-76), sequence (Q07820 171-327): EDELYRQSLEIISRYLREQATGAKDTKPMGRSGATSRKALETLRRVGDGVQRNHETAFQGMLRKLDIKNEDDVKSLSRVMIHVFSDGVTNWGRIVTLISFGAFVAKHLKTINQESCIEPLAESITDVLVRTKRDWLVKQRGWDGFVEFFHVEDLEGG

Row | Compound | IC50 [1] [nM] | EC50 (SKBR3 cells; Homo sapiens, SK-BR-3, 72 h) [nM] | EC50 (SKBR3 cells; 72 hours) [nM]
1 | CO[C@H]1/C=C/CCC[S@@](=O)(NC(=O)CCn2ncc3ccccc32)=NC(=O)c2ccc3c(c2)N(C[C@@H]2CC[C@H]21)C[C@@]1(CCCc2cc(Cl)ccc21)CO3 [Example 52] | 0.9 | 1950 | 
2 | CO[C@H]1/C=C/C[C@H](C)C[S@@](=O)(NC(=O)N2CC3(C2)CC3(F)F)=NC(=O)c2ccc3c(c2)N(C[C@@H]2CC[C@H]21)C[C@@]1(CCCc2cc(Cl)ccc21)CO3 [Example 324] | 0.058 | 37.9 | 
3 | CO[C@H]1/C=C/CCC[S@](=O)(NC(=O)N2CCS(=O)(=O)CC2)=NC(=O)c2ccc3c(c2)N(C[C@@H]2CC[C@H]21)C[C@@]1(CCCc2cc(Cl)ccc21)CO3 [Example 74] | 7.3 | 10000 | 
4 | COC[C@H]1C[C@H]1NC(=O)N[S@@]1(=O)=NC(=O)c2ccc3c(c2)N(C[C@@H]2CC[C@H]2[C@@H](OC)/C=C/C[C@H](C)C1)C[C@@]1(CCCc2cc(Cl)ccc21)CO3 [Example 316] | 0.056 |  | 116
5 | CO[C@H]1/C=C/CCC[S@@](=O)(NC(=O)COC2CCOCC2)=NC(=O)c2ccc3c(c2)N(C[C@@H]2CC[C@H]21)C[C@@]1(CCCc2cc(Cl)ccc21)CO3 [Example 105] | 0.1 | 351 | 
6 | CCC(=O)N[S@@]1(=O)=NC(=O)c2ccc3c(c2)N(C[C@@H]2CC[C@H]2[C@@H](OC)/C=C/C[C@H](C)[C@H]1C)C[C@@]1(CCCc2cc(Cl)ccc21)CO3 [Example 2] | 1.5 | 792 | 
7 | CO[C@H]1/C=C/C[C@H](C)C[S@@](=O)(NC(=O)N2CC(OC(=O)N3CCCCC3)C2)=NC(=O)c2ccc3c(c2)N(C[C@@H]2CC[C@H]21)C[C@@]1(CCCc2cc(Cl)ccc21)CO3 [Example 385] | 0.128 | 222 | 
8 | CO[C@H]1/C=C/CCC[S@@](=O)(NC(C)=O)=NC(=O)c2ccc3c(c2)N(C[C@@H]2CC[C@H]21)C[C@@]1(CCCc2cc(Cl)ccc21)CO3 [Example 25] | 0.6 | 2010 | 
9 | CO[C@H]1/C=C/C[C@H](C)C[S@@](=O)(NC(=O)C2CC3(CCOC3)C2)=NC(=O)c2ccc3c(c2)N(C[C@@H]2CC[C@H]21)C[C@@]1(CCCc2cc(Cl)ccc21)CO3 (some centres unmarked) [Example 125] | 0.074 | 88.7 | 
10 | CO[C@H]1/C=C/CCC[S@@](=O)(NC(=O)c2cc3ccccc3n2C)=NC(=O)c2ccc3c(c2)N(C[C@@H]2CC[C@H]21)C[C@@]1(CCCc2cc(Cl)ccc21)CO3 [Example 98] | 0.3 | 2190 | 
11 | CO[C@H]1/C=C/CCC[S@@](=O)(NC(=O)[C@@H]2C[C@H]2c2ccnn2C)=NC(=O)c2ccc3c(c2)N(C[C@@H]2CC[C@H]21)C[C@@]1(CCCc2cc(Cl)ccc21)CO3 [Example 83] | 0.1 |  | 460
12 | CO[C@H]1/C=C/C[C@H](C)C[S@@](=O)(NC(=O)N2CC3(CN(C)C(=O)O3)C2)=NC(=O)c2ccc3c(c2)N(C[C@@H]2CC[C@H]21)C[C@@]1(CCCc2cc(Cl)ccc21)CO3 [Example 272] | 0.018 | 47.9 | 
13 | C[C@@H]1[C@@H](C)C/C=C/[C@H](O)[C@@H]2CC[C@H]2CN2C[C@@]3(CCCc4cc(Cl)ccc43)COc3ccc(cc32)C(=O)N=[S@]1(=O)NC(=O)c1cc2n(c1)C[C@H](CO)OC2 [Example 329] | 0.087 | 57 | 
14 | CC[C@H]1C/C=C/[C@H](OC)[C@@H]2CC[C@H]2CN2C[C@@]3(CCCc4cc(Cl)ccc43)COc3ccc(cc32)C(=O)N=[S@](=O)(NC(=O)c2cc3n(c2)CCOC3)C1 [Example 202] | 0.082 | 91 | 
15 | CO[C@H]1/C=C/C[C@H](C)C[S@@](=O)(NC(=O)N2CC(Oc3ccncc3)C2)=NC(=O)c2ccc3c(c2)N(C[C@@H]2CC[C@H]21)C[C@@]1(CCCc2cc(Cl)ccc21)CO3 [Example 275] | 0.053 | 90.4 | 
16 | CO[C@H]1/C=C/CCC[S@@](=O)(NC(=O)COc2ccnn2C)=NC(=O)c2ccc3c(c2)N(C[C@@H]2CC[C@H]21)C[C@@]1(CCCc2cc(Cl)ccc21)CO3 [Example 100] | 0.2 | 2260 | 

Now from value to molecule, other results behind:

Row | IC50 [1] [nM] | EC50 (SKBR3 cells; Homo sapiens, SK-BR-3, 72 h) [nM] | Compound | EC50 (SKBR3 cells; 72 hours) [nM]
17 | 0.062 | 67.4 | CO[C@H]1/C=C/C[C@H](C)C[S@@](=O)(NC(=O)N2CC(CC(F)F)C2)=NC(=O)c2ccc3c(c2)N(C[C@@H]2CC[C@H]21)C[C@@]1(CCCc2cc(Cl)ccc21)CO3 [Example 355] | 
18 | 0.051 | 284 | CO[C@H]1/C=C/C[C@H](C)C[S@@](=O)(NC(=O)N[C@@H]2CC2(F)F)=NC(=O)c2ccc3c(c2)N(C[C@@H]2CC[C@H]21)C[C@@]1(CCCc2cc(Cl)ccc21)CO3 [Example 440] | 
19 | 0.14 | 222 | COc1nn(C)cc1C(=O)N[S@@]1(=O)=NC(=O)c2ccc3c(c2)N(C[C@@H]2CC[C@H]2[C@@H](OC(C)=O)/C=C/C[C@H](C)[C@H]1C)C[C@@]1(CCCc2cc(Cl)ccc21)CO3 [Example 249] | 
20 | 0.138 | 79.3 | CO[C@H]1/C=C/C[C@H](C)C[S@@](=O)(NC(=O)c2cnn(C3CCC3)c2)=NC(=O)c2ccc3c(c2)N(C[C@@H]2CC[C@H]21)C[C@@]1(CCCc2cc(Cl)ccc21)CO3 [Example 176] | 
21 | 0.526 | 105 | CO[C@H]1/C=C/C[C@H](C)C[S@@](=O)(NC(=O)c2cc3n(c2)CCCC3)=NC(=O)c2ccc3c(c2)N(C[C@@H]2CC[C@H]21)C[C@@]1(CCCc2cc(Cl)ccc21)CO3 [Example 415] | 
22 | 0.129 | 260 | CNC1CN(C(=O)N[S@@]2(=O)=NC(=O)c3ccc4c(c3)N(C[C@@H]3CC[C@H]3[C@@H](OC)/C=C/C[C@H](C)C2)C[C@@]2(CCCc3cc(Cl)ccc32)CO4)C1 [Example 294] | 
23 | 0.126 | 155 | COc1nn(C)cc1C(=O)N[S@@]1(=O)=NC(=O)c2ccc3c(c2)N(C[C@@H]2CC[C@H]2[C@@H](OC(=O)[C@@H](N)C(C)C)/C=C/C[C@H](C)[C@H]1C)C[C@@]1(CCCc2cc(Cl)ccc21)CO3 [Example 254] | 
24 | 0.109 | 95.3 | CO[C@H]1/C=C/C[C@H](C)C[S@@](=O)(NC(=O)N[C@H]2C[C@@H](OC)C2)=NC(=O)c2ccc3c(c2)N(C[C@@H]2CC[C@H]21)C[C@@]1(CCCc2cc(Cl)ccc21)CO3 [Example 149] | 
25 | 0.043 | 38.6 | CO[C@H]1/C=C/C[C@H](C)C[S@@](=O)(NC(=O)C2CC(C)(O)C2)=NC(=O)c2ccc3c(c2)N(C[C@@H]2CC[C@H]21)C[C@@]1(CCCc2cc(Cl)ccc21)CO3 (some centres unmarked) [Example 140] | 
26 | 0.037 | 39.6 | COCCOC1CN(C(=O)N[S@@]2(=O)=NC(=O)c3ccc4c(c3)N(C[C@@H]3CC[C@H]3[C@@H](OC)/C=C/C[C@H](C)C2)C[C@@]2(CCCc3cc(Cl)ccc32)CO4)C1 [Example 251] | 
27 | 0.209 | 222 | COc1nn(C)cc1C(=O)N[S@@]1(=O)=NC(=O)c2ccc3c(c2)N(C[C@@H]2CC[C@H]2[C@@H](N2CC(OC)C2)/C=C/C[C@H](C)C1)C[C@@]1(CCCc2cc(Cl)ccc21)CO3 [Example 464] | 
28 | 0.056 | 169 | CO[C@H]1/C=C/C[C@H](C)C[S@@](=O)(NC(=O)NC2CCC2)=NC(=O)c2ccc3c(c2)N(C[C@@H]2CC[C@H]21)C[C@@]1(CCCc2cc(Cl)ccc21)CO3 [Example 423] | 
29 | 0.085 | 194 | COc1nc(OC)c(C(=O)N[S@@]2(=O)=NC(=O)c3ccc4c(c3)N(C[C@@H]3CC[C@H]3[C@@H](OC)/C=C/C[C@H](C)C2)C[C@@]2(CCCc3cc(Cl)ccc32)CO4)c(OC)n1 [Example 459] | 
30 | 0.024 | 17.3 | COC1CN(C(=O)N[S@@]2(=O)=NC(=O)c3ccc4c(c3)N(C[C@@H]3CC[C@H]3[C@@H](OC)/C=C/C[C@H](C)C2)C[C@@]2(CCCc3cc(Cl)ccc32)CO4)C1 [Example 362] | 
31 | 0.087 | 151 | CO[C@H]1/C=C/C[C@H](C)C[S@@](=O)(NC(=O)c2cnc(C)nc2)=NC(=O)c2ccc3c(c2)N(C[C@@H]2CC[C@H]21)C[C@@]1(CCCc2cc(Cl)ccc21)CO3 [Example 461] | 
32 | 0.234 | 167 | CO[C@H]1/C=C/C[C@H](C)C[S@@](=O)(NC(=O)c2cn(C)c3nccnc23)=NC(=O)c2ccc3c(c2)N(C[C@@H]2CC[C@H]21)C[C@@]1(CCCc2cc(Cl)ccc21)CO3 [Example 450] | 
33 | 0.035 | 45.5 | CO[C@H]1/C=C/C[C@H](C)C[S@@](=O)(NC(=O)[C@H]2C[C@@](C)(O)C2)=NC(=O)c2ccc3c(c2)N(C[C@@H]2CC[C@H]21)C[C@@]1(CCCc2cc(Cl)ccc21)CO3 [Example 165] | 
34 | 0.04 | 41.9 | COc1nn(C)cc1C(=O)N[S@@]1(=O)=NC(=O)c2ccc3c(c2)N(C[C@@H]2CC[C@H]2[C@@H](OC(=O)CN(C)C)/C=C/C[C@H](C)C1)C[C@@]1(CCCc2cc(Cl)ccc21)CO3 [Example 301] | 
